Test results reported in patent US8420657B2 (Novartis AG, priority 2008, dated 2013).

Tests used:
GST-JAK2(808-1132) = target: T1, GST-JAK2(808-1132) (Homo sapiens, UniProt O60674); assay: JAK2 kinase assay (Caliper mobility shift, LabChip 3000); type: biochemical
T1 construct: GST-JAK2(808-1132); purchased Invitrogen (Carlsbad, USA) #4288
Summary of the method: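 Eight-point compound series (final 10–0.003 μM) tested on purchased GST-JAK2 kinase domain (808-1132). Peptide FITC-JAK3tide plus ATP reacted 60 min, 30 °C, then quenched with EDTA; turnover from charge-based separation of substrate and product.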

[1] = system: JAK1/JAK2-dependent nuclear translocation of STAT1-GFP in HT1080 fibrosarcoma cells; assay: STAT1 nuclear translocation assay (Cellomics), IFN-γ stimulated HT1080 STAT1-GFP cells; type: cell-based; details: Homo sapiens, HT-1080, STAT1 translocation pathway
Description: The medium-throughput (96-well format) cellular automated fluorescence microscopy Cellomics assay can be routinely used to assess the functional activation of Janus Kinases (JAKs), based on the nuclear translocation of their substrate, Signal Transducer and Activator of Transcription (STAT). Nuclear translocation can be monitored either in HT1080 fibrosarcoma cells stably transfected with STAT1 fused to Green Fluorescence Protein (GFP) or in U-2 OS osteosarcoma cells stably transfected with STAT5 fused to Green Fluorescence Protein (GFP). Stimulation of HT1080 cells with interferon-γ (IFN-γ) results in JAK1/JAK2-dependent nuclear translocation of STAT1-GFP, whereas stimulation of U-2 OS cells with recombinant human erythropoietin (rhEpo) results in JAK2-dependent nuclear translocation of STAT5-GFP, both of which can be quantified using the Cellomics Cyto/NucTrans software package. This assay may be used to provide an assessment of the nuclear-cytoplasmic differential (NCD) of STAT-GFP using Hoechst dye to define the boundaries of the nucleus.
HT1080 fibrosarcoma cells may be obtained from ATCC and can be cultured in alpha Modified Eagle Medium with 10% FCS. Cells can be transfected with pEGFP-N2 STAT1 using Fugene 6 Transfection Reagent following the manufacturers' protocol. 24 hours after transfection the medium can be replaced and selected in 1 mg/ml Geneticin.
Compounds can be dissolved in DMSO to a final stock concentration of 10 mM and stored as aliquots at 4° C. Compounds may be pre-diluted in 100% DMSO at 10 mM, 3 mM 1 mM, 0.3 mM, 0.1 mM, 0.03 mM, 0.01 mM and 0.003 mM. Subsequently, compounds may be diluted in medium and added in 50 μl to the cells. The final compound concentrations tested may be 10 μM, 3 μM 1 μM, 0.3 μM, 0.1 μM, 0.03 μM, 0.01 μM and 0.003 μM and the final DMSO concentration can be 0.1%.
HT1080 STAT1-GFP cells may be seeded at a density of 10,000 cells per well in clear-bottom black 96-well Packard View-Plates™. 16-24 hours later, the cells can be treated for 2 hours with 100 ng/ml IFN-γ, washed twice in pre-warmed PBS and fixed in 200 μl of pre-warmed fixation solution (PBS, 3.7% Formaldehyde) for 10 minutes. The plates may be washed twice in 200 μl PBS and incubated, protected from light, in 100 μl of DNA-staining solution (PBS, 0.5 μg/ml Hoechst-33342) for 1 minute. The plates may then be washed once in PBS, and 200 μl PBS finally added per well. The plates, being finally covered with a black adhesive, may be either read directly or stored at 4° C. for later imaging. Where appropriate, the compounds may be added 30 min before stimulation with IFN-γ.
The plates can be read on a Cellomics® ArrayscanII automated fluorescence microscope plate reader equipped with a Mercury-Xenon white light illumination source and a Zeiss Axiovert inverted microscope, using the XF100 dichroic/emission filter cube and matching excitation filters, 10× magnification, and a 0.3 numerical aperture objective. Image acquisition and analysis can be performed using a customized protocol based on the ‘NuclearTranslocation’ Bioapplication. For each well, multiple images (fields) can be acquired until a minimum of 1000 cells are counted using two 2 channels: Channel 1 (Hoechst)=focus+nuclear mask, Channel 2 (GFP)=signal quantification in mask areas as outlined below. Nuclei may be first identified based on the Hoechst staining and a mask generated for each nucleus that then serves as a template to generate a circle (eroded inwards by 1 pixel) and a 3 pixel-wide collar-like ring (off-set outwards by 1 pixel), in which the nuclear and cytoplasmic intensity of GFP, respectively, are quantified in the corresponding channel. High content analysis yields numerous measurements per cell and the GFP intensity differential between the nuclear and the cytoplasmic masks may be chosen as a measure of sub-cellular STAT-GFP relocation. The resulting values may be averaged for all cells in the well to return a single measurement plus standard deviation. […]

T1 sequence (O60674 808-1132): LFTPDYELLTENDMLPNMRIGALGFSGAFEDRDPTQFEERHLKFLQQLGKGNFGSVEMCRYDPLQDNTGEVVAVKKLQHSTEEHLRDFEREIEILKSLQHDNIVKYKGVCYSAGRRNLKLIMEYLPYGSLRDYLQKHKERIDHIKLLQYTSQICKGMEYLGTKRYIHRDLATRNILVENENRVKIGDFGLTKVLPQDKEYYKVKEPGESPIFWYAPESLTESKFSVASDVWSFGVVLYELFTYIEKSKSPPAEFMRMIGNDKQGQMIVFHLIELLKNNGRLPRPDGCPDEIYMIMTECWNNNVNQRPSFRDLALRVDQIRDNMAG

`COc1cc(Nc2ncc3ccn(-c4ccc(CC(=O)N5CCN(C)CC5)cc4)c3n2)ccc1F` [Example 150, 2-{4-[2-(4-Fluoro-3-methoxy-phenylamino)-pyrrolo[2,3-d]pyrimidin-7-yl]-phenyl}-1-(4-methyl-piperazin-1-yl)-ethanone] gave an IC50 (GST-JAK2(808-1132)) of 4.5 nM and an IC50 [1] of 64.5 nM.

`CCOc1ccc(Nc2ncc3ccn(-c4ccc(S(C)(=O)=O)cc4)c3n2)cc1OCC` [Example 1, (3,4-Diethoxy-phenyl)-[7-(4-methanesulfonyl-phenyl)-7H-pyrrolo[2,3-d]pyrimidin-2-yl]-amine] gave an IC50 (GST-JAK2(808-1132)) of under 3 nM and an IC50 [1] of 43.5 nM.

With `O=C1CN(Cc2ccc(Nc3ncc4ccn(-c5cc(F)c(C(=O)N6CCOCC6)c(F)c5)c4n3)cc2)CCN1` [Example 259, 4-(4-{7-[3,5-Difluoro-4-(morpholine-4-carbonyl)-phenyl]-7H-pyrrolo[2,3-d]pyrimidin-2-ylamino}-benzyl)-piperazin-2-one] the IC50 (GST-JAK2(808-1132)) was under 3 nM and the IC50 [1] was 80 nM.

Molecule `Cc1ccc(Nc2ncc3ccn(-c4ccc(C5(C(=O)N6CCN(C)CC6)CC5)cc4)c3n2)cc1Cl` [Example 117, (1-{4-[2-(3-Chloro-4-methyl-phenylamino)-pyrrolo[2,3-d]pyrimidin-7-yl]-phenyl}-cyclopropyl)-(4-methyl-piperazin-1-yl)-methanone] has an IC50 (GST-JAK2(808-1132)) of 9.4 nM and an IC50 [1] of 384 nM.

For `CN1CCN(c2cccc(Nc3ncc4ccn(-c5cc(F)c(CN6CCOCC6)c(F)c5)c4n3)c2)CC1` [Example 174, [7-(3,5-Difluoro-4-morpholin-4-ylmethyl-phenyl)-7H-pyrrolo[2,3-d]pyrimidin-2-yl]-[3-(4-methyl-piperazin-1-yl)-phenyl]-amine], the IC50 (GST-JAK2(808-1132)) was under 3 nM and the IC50 [1] was 150 nM.

Molecule `Cc1cc(Nc2ncc3ccn(-c4ccc(C(=O)N5CCOCC5)c(F)c4)c3n2)ccc1F` [Example 92, {2-Fluoro-4-[2-(4-fluoro-3-methyl-phenylamino)-pyrrolo[2,3-d]pyrimidin-7-yl]-phenyl}-morpholin-4-yl-methanone] has an IC50 (GST-JAK2(808-1132)) of 4.2 nM and an IC50 [1] of 260 nM.

`CS(=O)(=O)c1ccc(-n2ccc3cnc(Nc4ccc(F)c(C(=O)N5CCOCC5)c4)nc32)cc1` [Example 77, {2-Fluoro-5-[7-(4-methanesulfonyl-phenyl)-7H-pyrrolo[2,3-d]pyrimidin-2-ylamino]-phenyl}-morpholin-4-yl-methanone] was tested, and the IC50 (GST-JAK2(808-1132)) was 38 nM and the IC50 [1] was 2620 nM.

With `C[C@@H]1CN(c2ccc(Nc3ncc4ccn(-c5cc(F)c(C(=O)N6CCOCC6)c(F)c5)c4n3)cn2)C[C@H](C)N1` [Example 266, (4-{2-[6-(cis-3,5-Dimethyl-piperazin-1-yl)-pyridin-3-ylamino]-pyrrolo[2,3-d]pyrimidin-7-yl}-2,6-difluoro-phenyl)-morpholin-4-yl-methanone] the IC50 (GST-JAK2(808-1132)) was 8.4 nM and the IC50 [1] was 150 nM.

For `O=C(Cc1ccc(-n2ccc3cnc(Nc4ccccc4)nc32)cc1)N1CCOCC1` [Example 143, 1-Morpholin-4-yl-2-[4-(2-phenylamino-pyrrolo[2,3-d]pyrimidin-7-yl)-phenyl]-ethanone], the IC50 (GST-JAK2(808-1132)) was under 3 nM and the IC50 [1] was 195 nM.

For `O=C(c1cncc(Nc2ncc3ccn(-c4cc(F)c(CN5CCOCC5)c(F)c4)c3n2)c1)N1CCOCC1` [Example 248, {5-[7-(3,5-Difluoro-4-morpholin-4-ylmethyl-phenyl)-7H-pyrrolo[2,3-d]pyrimidin-2-ylamino]-pyridin-3-yl}-morpholin-4-yl-methanone], the IC50 (GST-JAK2(808-1132)) was 24 nM and the IC50 [1] was 4270 nM.

With `COCc1ccc(Nc2ncc3ccn(-c4cc(F)c(CN5CCOCC5)c(F)c4)c3n2)cc1` [Example 135, [7-(3,5-Difluoro-4-morpholin-4-ylmethyl-phenyl)-7H-pyrrolo[2,3-d]pyrimidin-2-yl]-(4-methoxymethyl-phenyl)-amine] the IC50 (GST-JAK2(808-1132)) was 4.9 nM and the IC50 [1] was 420 nM.

`N#Cc1ccc(Nc2ncc3ccn(-c4ccc(C(=O)N5CCOCC5)cc4)c3n2)cc1` [Example 237, 4-{7-[4-(Morpholine-4-carbonyl)-phenyl]-7H-pyrrolo[2,3-d]pyrimidin-2-ylamino}-benzonitrile] gave an IC50 (GST-JAK2(808-1132)) of 7 nM and an IC50 [1] of 2560 nM.

`COCCn1cc(Nc2ncc3ccn(-c4cc(F)c(CN5CCOCC5)c(F)c4)c3n2)cn1` [Example 252, [7-(3,5-Difluoro-4-morpholin-4-ylmethyl-phenyl)-7H-pyrrolo[2,3-d]pyrimidin-2-yl]-[1-(2-methoxy-ethyl)-1H-pyrazol-4-yl]-amine] gave an IC50 (GST-JAK2(808-1132)) of 3.3 nM and an IC50 [1] of 340 nM.

In the case of `CCN1CCN(Cc2ccc(Nc3ncc4ccn(-c5cc(F)c(C(=O)N6CCN(C)CC6)c(F)c5)c4n3)cc2)CC1` [Example 191, (4-{2-[4-(4-Ethyl-piperazin-1-ylmethyl)-phenylamino]-pyrrolo[2,3-d]pyrimidin-7-yl}-2,6-difluoro-phenyl)-(4-methyl-piperazin-1-yl)-methanone], the IC50 (GST-JAK2(808-1132)) is reported as 28.5 nM and the IC50 [1] is reported as 3920 nM.

Work on `Cc1ccc(Nc2ncc3cc(C)n(-c4ccc(CN5CCOCC5)c(F)c4)c3n2)cc1C` [Example 163, (3,4-Dimethyl-phenyl)-[7-(3-fluoro-4-morpholin-4-ylmethyl-phenyl)-6-methyl-7H-pyrrolo[2,3-d]pyrimidin-2-yl]-amine] yielded an IC50 (GST-JAK2(808-1132)) of 295 nM and an IC50 [1] of 23500 nM.

Molecule `CN(C)CCNC(=O)c1cccc(Nc2ncc3ccn(-c4ccc(S(C)(=O)=O)cc4)c3n2)c1` [Example 50, N-(2-Dimethylamino-ethyl)-3-[7-(4-methanesulfonyl-phenyl)-7H-pyrrolo[2,3-d]pyrimidin-2-ylamino]-benzamide] has an IC50 (GST-JAK2(808-1132)) of under 3 nM and an IC50 [1] of 184 nM.

For `Cc1cc(Nc2ncc3ccn(-c4ccc(C(=O)N5CCOCC5)c(C)c4)c3n2)ccc1F` [Example 91, {4-[2-(4-Fluoro-3-methyl-phenylamino)-pyrrolo[2,3-d]pyrimidin-7-yl]-2-methyl-phenyl}-morpholin-4-yl-methanone], the IC50 (GST-JAK2(808-1132)) was under 3 nM and the IC50 [1] was 435 nM.

With `COCc1ccc(Nc2ncc3ccn(-c4ccc(S(C)(=O)=O)cc4)c3n2)cc1` [Example 54, [7-(4-Methanesulfonyl-phenyl)-7H-pyrrolo[2,3-d]pyrimidin-2-yl]-(4-methoxymethyl-phenyl)-amine] the IC50 (GST-JAK2(808-1132)) was 4.4 nM and the IC50 [1] was 3110 nM.

Molecule `CCN1CCN(Cc2c(F)cc(-n3ccc4cnc(Nc5ccc(C)c(Cl)c5)nc43)cc2F)CC1` [Example 130, (3-Chloro-4-methyl-phenyl)-{7-[4-(4-ethyl-piperazin-1-ylmethyl)-3,5-difluoro-phenyl]-7H-pyrrolo[2,3-d]pyrimidin-2-yl}-amine] has an IC50 (GST-JAK2(808-1132)) of 115 nM and an IC50 [1] of 8410 nM.

For `COc1cc(Nc2ncc3ccn(-c4ccc(C(=O)N5CCOCC5)c(F)c4)c3n2)ccc1C` [Example 303, {2-Fluoro-4-[2-(3-methoxy-4-methyl-phenylamino)-pyrrolo[2,3-d]pyrimidin-7-yl]-phenyl}-morpholin-4-yl-methanone], the IC50 (GST-JAK2(808-1132)) was 4.9 nM and the IC50 [1] was 295 nM.

For `CCN1CCN(Cc2ccc(-n3ccc4cnc(Nc5ccc(C)c(Cl)c5)nc43)cc2F)CC1` [Example 120, (3-Chloro-4-methyl-phenyl)-{7-[4-(4-ethyl-piperazin-1-ylmethyl)-3-fluoro-phenyl]-7H-pyrrolo[2,3-d]pyrimidin-2-yl}-amine], the IC50 (GST-JAK2(808-1132)) was 155 nM and the IC50 [1] was 7850 nM.
